Assay results from patent US20230414826A1, “FIBRIN HYDROGELS” (Mayo Foundation for Medical Education and Research, priority 2020, published 2023).

Target: T1, fibrin gels (40 mg/mL fibrinogen, 33 U/mL thrombin) (Homo sapiens, UniProt P02671+P02675+P02679)
T1 construct: purchased Ethicon (Evicel)
T1 sequence (P02671 20-644 isoform P02671-2 limits assumed): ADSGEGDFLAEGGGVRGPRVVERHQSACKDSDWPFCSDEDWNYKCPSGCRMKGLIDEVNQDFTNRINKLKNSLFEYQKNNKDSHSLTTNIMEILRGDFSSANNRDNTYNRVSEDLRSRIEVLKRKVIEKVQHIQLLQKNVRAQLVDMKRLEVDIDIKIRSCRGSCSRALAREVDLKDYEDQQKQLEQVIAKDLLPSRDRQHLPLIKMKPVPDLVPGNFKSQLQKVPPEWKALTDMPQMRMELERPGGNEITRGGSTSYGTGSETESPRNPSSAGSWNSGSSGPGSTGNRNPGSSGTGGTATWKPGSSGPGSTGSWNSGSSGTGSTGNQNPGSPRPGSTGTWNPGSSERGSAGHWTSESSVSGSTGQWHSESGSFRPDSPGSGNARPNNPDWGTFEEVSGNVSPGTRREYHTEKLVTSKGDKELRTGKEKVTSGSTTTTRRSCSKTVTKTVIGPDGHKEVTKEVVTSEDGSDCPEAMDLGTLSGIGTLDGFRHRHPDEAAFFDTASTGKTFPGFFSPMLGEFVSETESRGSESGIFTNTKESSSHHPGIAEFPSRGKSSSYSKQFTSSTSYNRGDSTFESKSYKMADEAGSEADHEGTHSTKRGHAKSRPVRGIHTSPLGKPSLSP
T1 sequence (P02675 45-491 limits assumed): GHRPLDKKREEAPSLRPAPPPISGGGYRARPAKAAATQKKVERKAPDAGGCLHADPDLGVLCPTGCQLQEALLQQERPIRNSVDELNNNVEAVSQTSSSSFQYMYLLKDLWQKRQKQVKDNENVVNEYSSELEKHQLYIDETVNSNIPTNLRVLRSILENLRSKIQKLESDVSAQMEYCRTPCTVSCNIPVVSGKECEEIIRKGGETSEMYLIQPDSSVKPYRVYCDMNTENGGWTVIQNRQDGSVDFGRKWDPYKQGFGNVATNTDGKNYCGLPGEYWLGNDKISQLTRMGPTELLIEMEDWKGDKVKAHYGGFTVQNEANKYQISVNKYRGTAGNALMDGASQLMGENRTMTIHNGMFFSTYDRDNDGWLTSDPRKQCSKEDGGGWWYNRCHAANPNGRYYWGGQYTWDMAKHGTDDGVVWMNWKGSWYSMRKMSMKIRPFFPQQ
T1 sequence (P02679 27-437 isoform P02679-2 limits assumed): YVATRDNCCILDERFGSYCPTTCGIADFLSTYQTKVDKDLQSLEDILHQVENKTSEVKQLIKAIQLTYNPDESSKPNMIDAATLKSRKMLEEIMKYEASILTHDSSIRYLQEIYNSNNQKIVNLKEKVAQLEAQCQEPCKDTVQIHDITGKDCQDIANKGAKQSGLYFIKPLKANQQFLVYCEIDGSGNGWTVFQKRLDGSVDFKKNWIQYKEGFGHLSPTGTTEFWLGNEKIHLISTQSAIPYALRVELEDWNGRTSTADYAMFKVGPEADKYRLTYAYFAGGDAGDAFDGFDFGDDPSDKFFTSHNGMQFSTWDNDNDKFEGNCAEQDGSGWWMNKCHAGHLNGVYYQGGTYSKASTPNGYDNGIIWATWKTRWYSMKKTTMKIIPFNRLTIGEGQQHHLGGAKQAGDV
Experiment: Transmission electron microscopy of fibrin gel cross sections
Conditions: TEM, 0.12% w/v dye
Method: Both scanning electron microscopy (SEM) and transmission electron microscopy (TEM) were performed to investigate the effect of the chemical additives on fibril formation microstructure. Gels were made with PBS, TB, or EB as described elsewhere (see, e.g., Gandhi et al., 2018 Acta Biomater., 67:134-46) with the following modifications. Briefly, a mixture of 40 mg/mL fibrinogen, 33 U/mL thrombin, and 0.12% w/v dye final concentrations was plated into a custom acetal mold to create the 300 μm sheet. After a 2 hour incubation at 37° C., the gels were hydrated in PBS for a minimum of 15 minutes.
The gels were then fixed overnight in 2.5% paraformaldehyde and 1% glutaraldehyde in 0.1 M phosphate buffer pH 7 containing 1.0 mM MgCl2 and 0.13 mM CaCl2. After fixation, gels were processed for scanning electron microscopy (SEM). Samples for TEM were processed by initially dehydrating the gels, embedding into plastic resin, and sectioned at a thickness of 100 nm. SEM imaging was performed using a Hitachi S-4700 (Hitachi High Technologies; Schaumburg, IL) microscope. Sections processed for TEM were imaged used a JEOL 1400 microscope (JEOL; Peabody, MA).
TEM was then performed to visualize the cross section of the fibrin gels. […] The PBS fibrin gel appears to have larger mesh spaces, with a large range of fibril diameters and orientation. […]

Cc1cc(-c2ccc(/N=N/c3ccc4c(S(=O)(=O)O)cc(S(=O)(=O)O)c(N)c4c3O)c(C)c2)ccc1/N=N/c1ccc2c(S(=O)(=O)O)cc(S(=O)(=O)O)c(N)c2c1O [EB, Evans Blue]
largest fibril diameters: 40-60 nm

Cc1cc(-c2ccc(/N=N/c3c(S(=O)(=O)O)cc4cc(S(=O)(=O)O)cc(N)c4c3O)c(C)c2)ccc1/N=N/c1c(S(=O)(=O)O)cc2cc(S(=O)(=O)O)cc(N)c2c1O [TB, Trypan Blue]
largest fibril diameters: 50-75 nm
